Measured values: US11299478B2, “2-cyanopyrimidin-4-yl carbamate or urea derivative or salt thereof, and pharmaceutical composition including same” (HANLIM PHARMACEUTICAL CO., LTD., priority 2018, dated 2022)

Assays:
Format in all cases: biochemical
[1] = biological target: T1, cathepsin K (Homo sapiens, UniProt P43235); assay: Inhibitory activity assay against cathepsin K (enzyme assay); conditions: Z-Phe-Arg-AMC 10 μM, enzyme 1 nM, pH 5.5, 30 minutes
T1 sequence (P43235 115-329): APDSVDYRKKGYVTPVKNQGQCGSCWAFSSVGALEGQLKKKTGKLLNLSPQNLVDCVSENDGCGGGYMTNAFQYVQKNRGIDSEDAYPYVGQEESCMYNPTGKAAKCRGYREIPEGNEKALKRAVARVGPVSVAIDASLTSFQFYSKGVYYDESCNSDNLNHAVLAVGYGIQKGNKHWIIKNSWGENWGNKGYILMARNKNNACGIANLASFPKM
How it was run: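 IC50 by 4-parameter logistic fit of fluorescence (ex 355 nm, em 460 nm) after 30 min reaction. Compound tested at 10 final concentrations from 10.0 μM down to 0.000508 μM against 1 nM enzyme and 10 μM Z-Phe-Arg-AMC, in MES buffer pH 5.5 with DTT, EDTA, Triton X-100 and 10% DMSO.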

[2] = biological target: cathepsin B (Homo sapiens, UniProt P07858); assay: Inhibitory activity assay against cathepsin B (enzyme assay); conditions: Z-Arg-Arg-AMC 40 μM, enzyme 1 nM, pH 6.0, 90 minutes
How it was run: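 Reaction run 90 min in MES buffer pH 6.0 containing DTT, EDTA, Polysorbate 20 and 10% DMSO, using 40 μM fluorogenic Z-Arg-Arg-AMC and 1 nM cathepsin B. Ten compound levels from 10.0 μM; AMC fluorescence at ex 340/em 460 nm fitted to a 4-parameter logistic for IC50.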

[3] = biological target: cathepsin L (Homo sapiens, UniProt P07711); assay: Inhibitory activity assay against cathepsin L (enzyme assay); conditions: Z-Phe-Arg-AMC 2 μM, enzyme 3 nM, pH 5.5, 30 minutes
How it was run: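 IC50s came from 4-parameter logistic fits of ten concentrations (10.0 μM down to 0.000508 μM). Reaction: 30 min, 3 nM enzyme, 2 μM Z-Phe-Arg-AMC, pH 5.5 MES buffer containing DTT, EDTA, Polysorbate 20 and 10% DMSO; fluorescence read 340/460 nm.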

[4] = biological target: cathepsin S (Homo sapiens, UniProt P25774); assay: Inhibitory activity assay against cathepsin S (enzyme assay); conditions: Z-Phe-Arg-AMC 70 μM, enzyme 3 nM, pH 6.5, 45 minutes
How it was run: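 Ten-point compound titration (10.0 to 0.000508 μM final) reacted 45 min with 3 nM cathepsin S and 70 μM Z-Phe-Arg-AMC in MES 50 mM pH 6.5, DTT 2.5 mM, EDTA 1.0 mM, BSA 0.001%, DMSO 10%. AMC release read at 340/460 nm; IC50 from four-parameter logistic fit.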

Sequence of cathepsin L (P07711 114-333, species assumed): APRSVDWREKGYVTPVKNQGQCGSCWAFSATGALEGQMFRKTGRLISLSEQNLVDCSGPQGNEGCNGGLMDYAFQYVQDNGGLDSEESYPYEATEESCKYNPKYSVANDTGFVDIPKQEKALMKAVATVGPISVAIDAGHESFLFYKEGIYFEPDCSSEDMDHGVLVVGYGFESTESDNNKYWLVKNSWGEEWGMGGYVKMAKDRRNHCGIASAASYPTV
Sequence of cathepsin S (P25774 115-331, species assumed): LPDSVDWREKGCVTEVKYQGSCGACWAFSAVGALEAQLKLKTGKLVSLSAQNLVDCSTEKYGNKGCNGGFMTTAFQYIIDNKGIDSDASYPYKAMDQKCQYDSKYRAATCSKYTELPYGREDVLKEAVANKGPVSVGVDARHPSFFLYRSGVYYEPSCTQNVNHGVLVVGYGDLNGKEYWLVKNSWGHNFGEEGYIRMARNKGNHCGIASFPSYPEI

| SMILES | IC50 [1] [nM] | IC50 [2] [nM] | IC50 [3] [nM] | IC50 [4] [nM] |
| --- | --- | --- | --- | --- |
| N#Cc1nccc(C2(NC(=O)Nc3ccc(-c4ccc(S(=O)(=O)C(F)(F)F)cc4)c(C(F)(F)F)c3)CCCCC2)n1 [Example 177, 1-(1-(2-cyanopyrimidin-4-yl)cyclohexyl)-3-(2-(trifluoromethyl)-4′-((trifluoromethyl)sulfonyl)-[1,1′-biphenyl]-4-yl)urea] | 205 | > 10000 | > 10000 | 6140 |
| CS(=O)(=O)c1ccc(-c2ccc(NC(=O)NC3(c4ccnc(C#N)n4)CCCCC3)cc2C(F)(F)F)cc1C(F)(F)F [Example 178, 1-(1-(2-cyanopyrimidin-4-yl)cyclohexyl)-3-(4′-(methylsulfonyl)-2,3′-bis(trifluoromethyl)-[1,1′-biphenyl]-4-yl)urea] | 21.2 | > 10000 | > 10000 | 5600 |
| N#Cc1nccc(C2(NC(=O)Nc3ccc(-c4ccc(S(N)(=O)=O)cc4)c(C(F)(F)F)c3)CCCCC2)n1 [Example 179, 4′-(3-(1-(2-cyanopyrimidin-4-yl)cyclohexyl)ureido)-2′-(trifluoromethyl)-[1,1′-biphenyl]-4-sulfonamide] | 11.5 | > 10000 | 7530 | 2760 |
| CS(=O)(=O)Nc1ccc(-c2ccc(NC(=O)NC3(c4ccnc(C#N)n4)CCCCC3)cc2C(F)(F)F)cc1 [Example 180, N-(4′-(3-(1-(2-cyanopyrimidin-4-yl)cyclohexyl)ureido)-2′-(trifluoromethyl)-[1,1′-biphenyl]-4-yl)methanesulfonamide] | 10.9 | > 10000 | > 10000 | > 10000 |
| CC(C)N1CCN(c2ccc(-c3ccc(CNC(=O)NC4(c5ccnc(C#N)n5)CCCCC4)cc3)cc2)CC1 [Example 181, 1-(1-(2-cyanopyrimidin-4-yl)cyclohexyl)-3-((4′-(4-isopropylpiperazin-1-yl)-[1,1′-biphenyl]-4-yl)methyl)urea] | 1.9 | > 10000 | > 10000 | > 10000 |
| N#Cc1nccc(C2(NC(=O)Nc3ccc(C#CCCC(=O)O)cc3)CCCCC2)n1 [Example 182, 5-(4-(3-(1-(2-cyanopyrimidin-4-yl)cyclohexyl)ureido)phenyl)pent-4-ynoic acid] | 10.5 | > 10000 | > 10000 | > 10000 |
| N#Cc1nccc(C2(NC(=O)Nc3ccc(C#Cc4ccc(CO)cc4)cc3)CCCCC2)n1 [Example 183, 1-(1-(2-cyanopyrimidin-4-yl)cyclohexyl)-3-(4-((4-(hydroxymethyl)phenyl)ethynyl)phenyl)urea] | 22 | > 10000 | > 10000 | > 10000 |
| N#Cc1nccc(C2(NC(=O)Nc3ccc(-c4ccc(C(=O)NCCn5nccn5)cc4)c(F)c3)CCCCC2)n1 [Example 188, N-(2-(2H-1,2,3-triazol-2-yl)ethyl)-4′-(3-(1-(2-cyanopyrimidin-4-yl)cyclohexyl)ureido)-2′-fluoro-[1,1′-biphenyl]-4-carboxamide] | 16.1 | > 10000 | > 10000 | 4330 |

The next compounds have a lower IC50 [1] than those just listed; values first:

| IC50 [1] [nM] | IC50 [2] [nM] | IC50 [3] [nM] | IC50 [4] [nM] | SMILES |
| --- | --- | --- | --- | --- |
| 0.2 | 2150 | 2420 | 8050 | N#Cc1nccc(C2(NC(=O)Nc3ccc(-c4ccc(C(=O)NCCc5c[nH]cn5)cc4)cc3)CCCCC2)n1 [Example 184, N-(2-(1H-imidazol-4-yl)ethyl)-4′-(3-(1-(2-cyanopyrimidin-4-yl)cyclohexyl)ureido)-[1,1′-biphenyl]-4-carboxamide] |
| 0.1 | 1760 | 4400 | > 10000 | N#Cc1nccc(C2(NC(=O)Nc3ccc(-c4ccc(C(=O)NCCn5ccnc5)cc4)cc3)CCCCC2)n1 [Example 185, N-(2-(1H-imidazol-1-yl)ethyl)-4′-(3-(1-(2-cyanopyrimidin-4-yl)cyclohexyl)ureido)-[1,1′-biphenyl]-4-carboxamide] |
| 0.1 | 2740 | 2020 | > 10000 | N#Cc1nccc(C2(NC(=O)Nc3ccc(-c4ccc(C(=O)NCCn5ccnc5)cc4)c(F)c3)CCCCC2)n1 [Example 186, N-(2-(1H-imidazol-1-yl)ethyl)-4′-(3-(1-(2-cyanopyrimidin-4-yl)cyclohexyl)ureido)-2′-fluoro-[1,1′-biphenyl]-4-carboxamide] |
| 0.6 | 5400 | 1190 | > 10000 | N#Cc1nccc(C2(NC(=O)Nc3ccc(-c4ccc(C(=O)NCCc5c[nH]cn5)cc4)c(C(F)(F)F)c3)CCCCC2)n1 [Example 189, N-(2-(1H-imidazol-4-yl)ethyl)-4′-(3-(1-(2-cyanopyrimidin-4-yl)cyclohexyl)ureido)-2′-(trifluoromethyl)-[1,1′-biphenyl]-4-carboxamide] |
| 0.3 | 7870 | > 10000 | > 10000 | N#Cc1nccc(C2(NC(=O)Nc3ccc(-c4ccc(OCCN)cc4)cc3)CCCCC2)n1 [Example 190, 1-(4′-(2-aminoethoxy)-[1,1′-biphenyl]-4-yl)-3-(1-(2-cyanopyrimidin-4-yl)cyclohexyl)urea] |
| 0.1 | 4760 | > 10000 | > 10000 | CNCCOc1ccc(-c2ccc(NC(=O)NC3(c4ccnc(C#N)n4)CCCCC3)cc2)cc1 [Example 191, 1-(1-(2-cyanopyrimidin-4-yl)cyclohexyl)-3-(4′-(2-(methylamino)ethoxy)-[1,1′-biphenyl]-4-yl)urea] |
